Data reported in patent US20230293504A1, “TARGETING SUCNR1 TO REDUCE NEUROINFLAMMATION” (New York University, priority 2022, published 2023).

Assays:
[1] = mice; succinate IP daily (4 mM/kg) for 4 weeks vs PBS
Description: FIG. 3. […] Mice received daily intraperitoneal (IP) injection with PBS or Succinate (4 mM/kg) for 4 weeks before sample collection. […] B. Alpha Diversity measured by the Observed number of ASVs, and Phylogenetic diversity index for oral swab samples. C. […] D. Network plot generated in Cytoscape 3.8.2. The small gray dots represent ASVs, the white circles represent WT samples, the yellow triangles represent WT_Suc samples. Edges represent the interaction of sample and ASV are colored based on sample type.

[2] = system: Fusobacterium nucleatum
Description: FIG. 5. Fusobacterium nucleatum growth and virulence gene expression. A. F. nucleatum growth in media supplemented with indicated succinate concentrations shown as optical density measures over time (n=3, SEM). Different letters indicate statistically different from one another (ANOVA, p<0.05 by post-hoc Tukey's). B Relative expressions of virulence genes of F. nuleactum in 100 uM of succinate as determine by RT-PCR. (mean±SEM. ** p<0.01, * p<0.05).

[3] = biological target: T1, SUCNR1 (Mus musculus, UniProt Q99MT6); assay: Ligature plus F. nucleatum induced periodontitis in mice, topical 7a gel formulation (FIG. 11); assay type: in vivo
T1 construct: endogenous in cells; host or cells: live mice; C57/B6 is stated for the periodontitis model, and no strain is stated for the LPS model
T1 sequence (Q99MT6 1-317): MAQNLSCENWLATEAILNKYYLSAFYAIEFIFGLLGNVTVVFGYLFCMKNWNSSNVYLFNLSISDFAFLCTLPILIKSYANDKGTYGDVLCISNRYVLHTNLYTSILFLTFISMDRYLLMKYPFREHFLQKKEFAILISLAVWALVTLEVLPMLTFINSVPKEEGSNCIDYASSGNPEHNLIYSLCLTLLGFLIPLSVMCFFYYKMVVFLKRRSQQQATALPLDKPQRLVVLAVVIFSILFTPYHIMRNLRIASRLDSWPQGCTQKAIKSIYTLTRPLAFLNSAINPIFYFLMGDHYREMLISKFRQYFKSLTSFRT
Description: FIG. 11. Targeting SUCNR1 suppressed periodontitis and neuroinflammation. A. Study design. Periodontitis was induced in 14-week-old mice with a 6-0 silk ligature (Roboz Surgical Instrument Co., MD, USA) around the maxillary right side second molar. The ligature were kept in place for 5 days before removal. Sterile swabs soaked in 100 μl of 2.5×10^9/ml F. nucleatum in PBS and inoculated into mice around the ligature affected gingival tissues for 30 seconds. Inoculations were performed twice a week for four weeks. Mice were randomly assigned to receive 3 μl vehicle or 7a gel formulation every other day by topical application. B. Representative μCT images; C. The distance between CEJ to alveolar bone crest. D. IL-1β mRNA levels in the gingivae around the ligature site. E. Serum IL-1β levels. *p<0.05, ** p<0.01, *** p<0.001).
A novel mechanism connecting chronic peripheral inflammation and neuroinflammation. […] Inflammation was induced in 14-week-old C57/B6 mice by placing a ligature on the 2nd maxillary molar for 5-days plus twice/week inoculations of a key periodontal pathogen Fusobacteria nucleatum (Fn) for 4-weeks (FIG. 1A). […] This local inflammation was accompanied with the induction of neuroinflammation evidenced by the activation of microglia (FIG. 1D) and increased IL1β levels in hippocampus, cortex and cerebellum (FIG. 1E-G).
Six in situ gel formulations (ISGs) were produced by varying polymer concentration, changing the hydrophobicity of the solvent system, and use of different plasticizers (such as PEG200). All these ISGs were analyzed by FT-IR/ATR and HPLC assay for drug-polymer compatibility. In vitro drug release experiments were performed to assess the profile of sustained release with controlled initial burst release. One gel formulation was chosen to treat periodontitis animals in-vivo at 1 μg/10 g body weight three times/week (FIG. 11).
To determine if succinate receptor 1 inhibitors could reduce inflammation, succinate receptor 1 inhibitors were administered to mice. In this study (FIG. 11), mice with periodontal disease were used because of the resulting neuroinflammation from the periodontal disease. Topical application of POC7a gel formulation was administered at 1 μg/10 g body weight three times/week.

[4] = biological target: T1, SUCNR1; assay: LPS-induced neuroinflammation in mice, oral gavage of 7a (FIG. 16); assay type: in vivo; details: LPS-treated mice
Description: FIG. 16. […] A. Experimental design and treatment regime. 12-week-old male mice were randomly divided into 3 groups to receive inflammation induction (LPS) and treatment (7a) at indicated timepoints. PBS was used as the control solution to LPS and 20% DMSO in PBS (vehicle) was used as the control solution to 7a. The RNA samples were collected in TRIZol and extracted after perfusion. TNFα and IL1β mRNA levels were measured by Realtime PCR using specific primers and normalized to β-actin. B. Cerebellum, C. Hippocampus and D. Cortex. (* p<0.05. ** p<0.005, *** p<0.0005, **** p<0.0001 One-way ANOVA with post-hoc Tukey test).
Targeting SUCNR1 with topical 7a application reduced periodontitis as well as the associated neuroinflammation in mice. […] Thus, mice were pretreated 7a or vehicle through oral gavage 30 minutes before giving LPS intraperitoneally to induce neuroinflammation. The administration of 7a at 8 hours and 16 hours was repeated after the first dose. The mouse blood samples were collected through cardiac puncture at 24 hours (FIG. 16A). Immediately afterward, PBS was used to perfuse the mice to minimize the impact of blood cells to the gene expression of the brain tissues. The brain tissue samples were collected and the cerebellum, hippocampus, and cortex were micro-dissected and processed for RNA extraction and gene expression analysis.
The 7a solution was prepared as follows. 100 mM 7a stock solution was prepared using DMSO. Then the 7a stock solution was further diluted with PBS to become 20 mM 7a working solution and used for oral gavage to mice. DMSO in PBS (at 20% v/v) was used as vehicle. Based on the animals' body weight, 25 gram mice will receive 100 μL gavage volume) 7a working solution or vehicle. The treatment dose of 7a is 80 μmol/kg.

[5] = mice with periodontitis, topical gel
[6] = 7a oral gavage 80 μmol/kg, 3 doses, mRNA at 24 hours

O=C(O)CCC(=O)O [succinate]
dysbiosis in the oral microbiota (alpha and beta diversity) [1]: increased
serum IL-1β levels [1]: increased
expression of virulence factors (Hemin receptor, Hemolysin, Hemolysin-related protein, Lys R Family transcriptional regulator) ([2]; 100 uM of succinate, RT-PCR): elevated
F. nucleatum growth (optical density) ([2]; media supplemented with succinate): elevated

CNC(=O)Cc1ccc(-c2ccc3cccnc3n2)cc1 [7a]
IL1β levels in cerebellum tissues [3, 5]: significant reduction
IL1β levels in hippocampal tissues [3, 5]: significant reduction
systemic IL1β levels in the serum [3, 5]: reduced
local IL1β levels in the gingiva ([3]; mice with periodontitis, topical gel, mRNA around the ligature site): reduced
periodontitis (μCT, distance between CEJ to alveolar bone crest) ([3]; mice, ligature + F. nucleatum, oral topical gel formulation every other day): inhibited periodontitis
IL1β expression in the cerebellum [4, 6]: less induction
IL1β expression in the hippocampus [4, 6]: less induction
TNFα expression in the cerebellum [4, 6]: less induction
TNFα expression in the cortex [4, 6]: reduced
TNFα expression in the hippocampus [4, 6]: less induction
neuroinflammation ([4]; oral gavage): reduced neuroinflammation
